Like-named read-outs stand apart in the source and are kept apart here.
How the values were obtained:
TRAF6/Uev1A/Ubc13 = target: T1, TRAF6/Uev1A/Ubc13 (Homo sapiens, UniProt Q9Y4K3); test: TRAF6/Uev1A/Ubc13 plate-based ubiquitin ligase assay; assay type: biochemical
T1 sequence (Q9Y4K3 1-522): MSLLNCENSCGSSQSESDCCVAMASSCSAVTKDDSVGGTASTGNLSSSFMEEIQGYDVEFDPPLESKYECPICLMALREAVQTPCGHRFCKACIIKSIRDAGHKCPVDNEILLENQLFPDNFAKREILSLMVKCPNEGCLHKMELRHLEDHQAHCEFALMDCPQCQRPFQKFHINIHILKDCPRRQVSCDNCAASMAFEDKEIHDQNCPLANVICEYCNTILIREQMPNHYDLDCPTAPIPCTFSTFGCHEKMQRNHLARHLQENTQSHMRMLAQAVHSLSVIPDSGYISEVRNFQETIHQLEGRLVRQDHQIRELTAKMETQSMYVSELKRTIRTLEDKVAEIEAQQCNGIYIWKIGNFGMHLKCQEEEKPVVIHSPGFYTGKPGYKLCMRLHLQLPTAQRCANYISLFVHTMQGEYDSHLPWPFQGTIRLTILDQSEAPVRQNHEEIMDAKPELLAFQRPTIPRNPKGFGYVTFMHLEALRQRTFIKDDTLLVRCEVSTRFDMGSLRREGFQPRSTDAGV
In short: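 Ligase activity was read as luminescence from anti-Flag/HRP detection of Flag-ubiquitin bound to casein-blocked Ni-plates alongside His-ubiquitin after a 1 h room-temperature reaction. Buffer: 62.5 mM Tris pH 7.5, 6.25 mM MgCl2, 1.0 mM DTT, 2 μM ATP; E1, Uev1a/Ubc13 and TRAF6 added last to start. IC50s derived across compound concentrations.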

A549 cells = test: Cell proliferation PAD assay, A549; assay type: cell-based; conditions: Homo sapiens, 48 hours
In short: (§1)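 Each line, seeded at 2,000 cells/well, received duplicate 6.3-fold compound dilutions (10 mM stock, diluted 500× into medium) one day after plating. Exposure lasted 48 h; fixed cells were DAPI-stained and photographed, and images were analysed for live, apoptotic and dead cell numbers.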

H1299 cells = test: Cell proliferation PAD assay, H1299; assay type: cell-based; conditions: Homo sapiens, 48 hours
In short: as §1

U2OS cells = test: Cell proliferation PAD assay, U2OS; assay type: cell-based; conditions: Homo sapiens, 6pt, 48 hours
Description: (§2) Table 3 illustrates the inhibitory activity of the compounds of the invention determined by the PAD assay described above in a number of cell types. Apoptosis was not
(§3) Cell lines used are available from American Type Culture Collection (ATCC), for example, cell cultures containing A549 (ATCC# CCL-185), HeLa (ATCC# CCL-2), HCT116 ATTC# CCL-247), and H1299 (ATCC# CRL-5803) cells were maintained in T175 flasks following the ATCC recommended media and handling procedures. […] A 20,000 cells/ml solution was made for plating. Cells were plated in black Packard 96 well plates by placing 100 μl per well (2,000 cells per well). […] The definitions of the cell types used are as follows: A549 is lung carcinoma; HI 299 is non-small cell lung carcinoma; HI 155 is non-small cell lung carcinoma; AsPC-1 is pancreatic adenocarcinoma; Caov-3 is ovarian adenocarcinoma; COLO 205 is colorectal adenocarcinoma; DLD-1 colorectal adenocarcinoma; HCT116 is colorectal carcinoma; DU 145 is prostate carcinoma; ES-2 is ovarian clear cell carcinoma; H460 is large cell lung carcinoma; HELA is cervical adenocarcinoma; MIA PaCa-2 is pancreatice carcinoma; OVCAR-3 is ovarian adenocarcinoma; OVCAR8 is ovarian carcinoma; PC3 is prostate adenocarcinoma; SK-OV-3 is ovarian adenocarcinoma; SU86.86 is pancreatic carcinoma; TOV-21G is avarian clear cell carcinoma; U2OS is bone osteosarcoma; is ASPC-I is pancreatic adenocarcinoma; BXPC-3 is pabcreatic adenocarcinoma; HL60 is promyeloblast promyelocytic leukemia; K562 is bone marrow chronic myelogenous leukemia; L1210 is mouse lymphocytic leukemia; MOLT3 is T lymphoblast acute lymphoblastic leukemia; MOLT4 is T lymphoblast acute lymphoblastic leukemia; SW620 is colorectal adenocarcinoma; THP-1 is monocyte acute monocytic leukemia; U937 is histiocytic lymphoma; and UACC-257 is melanoma.
(§4) Compounds and additional media were added 24 hours after cell plating. A compound master plate was created with concentrations 500 times greater than the final concentration added to the cells. All compound testing was done in duplicate using 6.3 fold dilutions starting with 10 mM. All outside wells (and 4 internal wells) were DMSO controls. Taxol and at least one additional control were run on all plates. Three microliters of the compound master plate were added to deep well blocks containing 750 μl of RPMI media. One hundred microliters were transferred from the compound/media deep well blocks to the plated cells resulting in a 500 fold dilution of the compounds. Cells were grown at 37° C., 5% CO2 for 48 hours.
(§5) Cells to be analyzed by photography were fixed and stained. One hundred microliters of media were removed and 100 μl of 9.3% formamide was added to each well. Plates were left on the benchtop for 45 minutes. A staining solution containing 1.55 μl of 1 mg/ml DAPI added to 18.75 ml PBS was warmed for 15 minutes at 37° C. The cells were aspirated prior to washing with 100 μl of PBS. Seventy microliters of PBS were aspirated and 170 μl of the DAPI solution were added to each well of fixed cells. Plates were left at room temperature for one hour then aspirated and washed twice with 100 μl of PBS. The stained cells were left at 4° C. for a minimum of 16 hours before photographic analysis with Array Scan II (Cellomics). Analysis of the photographic images to determine numbers of live cells (proliferation), apoptotic cells and dead cells, were according to the methods described in U.S. Utility patent application Ser. No. 10/652,440, which incorporated herein in its entirety.

DLD-1 cells = test: Cell proliferation PAD assay, DLD-1; assay type: cell-based; conditions: Homo sapiens, DLD1 cells, 6pt, 48 hours
Description: as §2, §3, §4, §5

HCT116 cells = test: Cell proliferation PAD assay, HCT116; assay type: cell-based; conditions: Homo sapiens, 48 hours
Description: as §2, §3, §4, §5

HELA cells = test: Cell proliferation PAD assay, HeLa; assay type: cell-based; conditions: Homo sapiens, 6pt, 48 hours
Description: as §2, §3, §4, §5

COLO 205 cells = test: Cell proliferation PAD assay, COLO 205; assay type: cell-based; conditions: Homo sapiens, Colo205 cells, 9pt, 48 hours
Description: as §2
(§6) Cell lines used are available from American Type Culture Collection (ATCC), for example, cell cultures containing A549 (ATCC# CCL-185), HeLa (ATCC# CCL-2), HCT116 ATTC# CCL-247), and H1299 (ATCC# CRL-5803) cells were maintained in T175 flasks following the ATCC recommended media and handling procedures. […] A 20,000 cells/ml solution was made for plating. Cells were plated in black Packard 96 well plates by placing 100 μl per well (2,000 cells per well). […]
(§7) Cells to be analyzed by photography were fixed and stained. […]

MIA PaCa-2 cells = test: Cell proliferation PAD assay, MIA PaCa-2; assay type: cell-based; conditions: Homo sapiens, Miapaca2 cells, 9pt, 48 hours
Description: as §2, §6, §7

[1] = NCI-H1299, 3pt, read-out: H1299 3pt
[2] = NCI-H1299, 6pt, read-out: H1299 6pt
[3] = HCT-116, 6pt, read-out: HCT116 6pt

SMILES	IC50 (TRAF6/Uev1A/Ubc13)	IC50 (A549 cells; 3pt, read-out: A549 3pt)	IC50 (A549 cells; 6pt, read-out: A549 6pt)	IC50 (H1299 cells; [1])	IC50 (H1299 cells; [2])	IC50 (U2OS cells)	IC50 (DLD-1 cells)	IC50 (HCT116 cells; [3])	IC50 (HELA cells)	IC50 (COLO 205 cells)	IC50 (HCT116 cells; HCT-116, 9pt, read-out: HCT116 9pt)	IC50 (MIA PaCa-2 cells)
O=S(=O)(c1ccc(F)c2nonc12)N1CCN(c2ncc(C(F)(F)F)cc2Cl)CC1 [compound 164, 4-({4-[3-chloro-5-(trifluoromethyl)pyridin-2-yl]piperazin-1-yl}sulfonyl)-7-fluoro-2,1,3-benzoxadiazole]	< 1 µM	1 to 20 µM	1 to 20 µM	1 to 20 µM	1 to 20 µM	≥ 20 µM						
O=S(=O)(c1ccc(Cl)c2nonc12)N1CCN(c2ncc(C(F)(F)F)cc2Cl)CC1 [compound 169, 4-chloro-7-({4-[3-chloro-5-(trifluoromethyl)pyridin-2-yl]piperazin-1-yl}sulfonyl)-2,1,3-benzoxadiazole]	1 to 20 µM	≥ 20 µM	1 to 20 µM	≥ 20 µM	< 1 µM	< 1 µM						
Cc1cccc(N2CCN(S(=O)(=O)c3ccc(Cl)c4nonc34)CC2)n1 [compound 194, 4-chloro-7-{[4-(6-methylpyridin-2-yl)piperazin-1-yl]sulfonyl}-2,1,3-benzoxadiazole]	≥ 20 µM	≥ 20 µM	≥ 20 µM	1 to 20 µM	≥ 20 µM	< 1 µM						
CC1CN(S(=O)(=O)c2c(Cl)ccc3nonc23)CC(C)O1 (stereo not drawn) [compound 204, 5-chloro-4-[(2,6-dimethylmorpholin-4-yl)sulfonyl]-2,1,3-benzoxadiazole]	≥ 20 µM	1 to 20 µM	≥ 20 µM	< 1 µM	< 1 µM	< 1 µM	< 1 µM	1 to 20 µM	1 to 20 µM			
O=S(=O)(Nc1ccc2[nH]ncc2c1)c1ccc(Cl)c2nonc12 [compound 218, 7-chloro-N-1H-indazol-5-yl-2,1,3-benzoxadiazole-4-sulfonamide]	≥ 20 µM	≥ 20 µM	≥ 20 µM	1 to 20 µM	1 to 20 µM	1 to 20 µM	1 to 20 µM	1 to 20 µM	1 to 20 µM			
O=S(=O)(Nc1ccc2cn[nH]c2c1)c1c(Cl)ccc2nonc12 [compound 219, 5-chloro-N-1H-indazol-6-yl-2,1,3-benzoxadiazole-4-sulfonamide]	1 to 20 µM	1 to 20 µM	≥ 20 µM	1 to 20 µM	< 1 µM	< 1 µM	< 1 µM	< 1 µM	≥ 20 µM	1 to 20 µM	< 1 µM	< 1 µM

Reference: patent publication US20050282818A1, “Ubiquitin ligase inhibitors” (Rigel Pharmaceuticals, Inc., priority 2004, published 2005)
